Measured values reported in patent publication US20060122180A1, “Therapeutic treatment” (priority 2002, published 2006).
Bridge positions count the residues as written; N and C are the ends. Ends that are not written are not given here.

How the values were obtained:
Type in all cases: cell-based, mouse
Settings in all cases: MC-3T3.E1/J1 cells, serum starved, stimulated for 3 minutes
[1] = tested on: phospho-p44/42 mitogen activated proteine kinase (MAPK) (Thr 202/204); assay: Western blot of p44/42 MAPK phosphorylation in growth-factor-stimulated MC3T3.E1/J1 osteoblastic cells
Text: (§1) The MC3T3. E1/J1 cell line was isolated from a parental cell line, MC3T3-E1 (available from Invitrogen), which had in turn been derived from newborn C57BL/6 mouse calvaria. The MC3T3 E1/J1 line is described as an osteoblastic line. Care is taken in culture not to use a medium with a pH greater than 7.5 or to allow the cells to become confluent, as this causes a de-differentiation to form a fibroblastic phenotype. This reversion to a fibroblastic phenotype is a common feature of osteoblastic cell cultures.
(§2) MC3T3.E1/J1 cells were routinely maintained in complete media (α-modified minimum essential medium eagle+10% foetal calf serum+1% glutamine+10% M1). MC3T3.E1/J1 cells were plated at 1.7×10^4 cells/well (24 well plates) in complete media and incubated at 37° C. in 5% CO2 for 48 hours. Cells were washed twice in phosphate buffered saline and re-incubated for approximately 17 hours in serum starvation media (α-modified minimum essential medium eagle+1% glutamine).
(§3) Cells were then stimulated with growth factor (ET-1 or EGF) for 3 minutes. All media was then removed and the cells lysed in 2× laemli buffer. Following electrophoresis and western blotting, membranes were probed with phospho-p44/42 mitogen activated proteine kinase (MAPK)^(Thr 202/204), phosphor-AKT^(Ser 473) and phospho-EGF Receptor^(tyr 1173) specific antibodies.

[2] = tested on: phospho-EGF Receptor (tyr 1173); assay: Western blot of EGF receptor phosphorylation in growth-factor-stimulated MC3T3.E1/J1 osteoblastic cells
Text: as §1, §2, §3

[3] = tested on: phosphor-AKT (Ser 473); assay: Western blot of AKT phosphorylation in growth-factor-stimulated MC3T3.E1/J1 osteoblastic cells
Text: as §1, §2, §3

Row | Substance | p44/42 MAPK phosphorylation [1] | EGFR tyr1173 phosphorylation [2] | AKT phosphorylation [3]
1 | endothelin-1 (CSCSSLMDKECVYFCHLDIIW; disulfide 1-15, 3-11; ends not checked; UniProt P05305 53-73, looked up) [ET-1, endogenous 21 amino acid peptide, endothelin isoform, used as growth factor stimulus] | stimulates | – | –
2 | epidermal growth factor [EGF, growth factor used as stimulus] | stimulates | stimulates | stimulates
